For assay [1], the system named is strain CB1190, strain D11, and strain D17. Kind of assay: Proliferation of 1,4-dioxane-degrading bacteria in the presence of diethylene glycol (Example 1). The assay is classed as cell-based. The conditions noted are these: 28° C., nine days. As to the method:
Strain CB1190, strain D11, and strain D17 were used as 1,4-dioxane-degrading bacteria. Each degradation bacterium was cultured for ten days using a CGY medium (casitone: 5 g/L, glycerin: 5 g/L, yeast extract: 1 g/L) containing 1,4-dioxane at a concentration of 500 mg/L. After cultivation, the bacterial cells were harvested and washed with a centrifugal separator, and then mixed with 20 mL of physiological saline, in such a manner that an inoculum suspension was obtained. It should be noted that an inoculum suspension (OD600: approximately 10) which was turbidity-standardized using a spectrophotometer was used as the inoculum suspension. […]
The bacterial cells in the culture solution were collected as […] by suction filtration after the culture was finished. Then, the […] was dried at 105° C. overnight, and the weight of the bacterial cells was measured, in such a manner that the bacterial cell concentration (mg-dry cell/L) was obtained. Proliferation of the bacterial cells was evaluated by Δ bacterial cell concentration obtained by subtracting the initial bacterial cell concentration from the bacterial cell concentration on the ninth day of culture. […]

The test system of another assay is strain D17. The assay can be described thus: Bacterial cell concentration measurement at different diethylene glycol concentrations (Examples 3 to 7). To be noted: diethylene glycol increased from 1 g/L to 10 g/L, seven days. The assay is classed as cell-based, Pseudonocardia sp. D17. The protocol: 100 mL of a liquid medium (medium composition: K2HPO4: 1 g/L, (NH4)2SO4: 1 g/L, NaCl: 50 mg/L, MgSO4.7H2O: 200 mg/L, FeCl3: 10 mg/L, CaCl2: 50 mg/L, pH: 7.3) containing diethylene glycol of 1 g/L was added to an Erlenmeyer flask equipped with baffles with a volume of 300 mL. Next, strain D17 which was inoculated in the MGY medium in advance was cultured (initial bacterial cell concentration: 111 mg-dry cell/L) and was subjected to the rotary shaking culture at 28° C. and 120 rpm for seven days.
Degradation bacteria were cultured in the same manner as in Example 3 except that the concentration of diethylene glycol in the liquid medium was set to be 5 g/L. […]
The bacterial cells in the culture solution were collected as a filter residue through suction filtration after the cultivation was finished and the bacterial cells were dried at 105° C. overnight, and then the weight of the collected bacterial cells was measured. The bacterial cell concentration (mg-dry cell/L) was obtained from the value of the measured bacterial cell weight. […] The proliferation property of the bacterial cells was evaluated by Δ bacterial cell concentration which was obtained by subtracting the initial bacterial cell concentration from the bacterial cell concentration on the seventh day of culturing.

The subject of the next assay is SDIMO-bearing bacteria. The assay can be described thus: PCR detection of SDIMO gene in contaminated soil cultured with diethylene glycol (Example 9). The assay is classed as cell-based. The conditions noted are these: seven contaminated soil samples, diethylene glycol 20 g/L, six days. As to the method: The proliferation of SDIMO-bearing bacteria by culturing in a medium supplemented with diethylene glycol was investigated in seven types of soil collected from different places at sites contaminated with 1,4-dioxane. It should be noted that the proliferation of SDIMO-bearing bacteria was evaluated by an increase in PCR amplification products of about 420 bp derived from a SDIMO-encoding gene (a SDIMO gene).
The soil with a wet weight of 10 g was added to an Erlenmeyer flask of 300 ml in which the liquid medium of 90 ml (medium composition: K2HPO4: 1 g/L, (NH4)2SO4: 1 g/L, NaCl: 50 mg/L, MgSO4.7H2O: 200 mg/L, FeCl3: 10 mg/L, CaCl2: 50 mg/L, pH: 7.0) was placed. Then, diethylene glycol was added such that the final concentration became 20 g/L and the rotary shaking culture was carried out at 28° C. and 120 rpm.
The samples were collected immediately after diethylene glycol was added and after six days by 5 ml, respectively, and a supernatant was removed by centrifugation (10,000×g, 4° C., 5 min), and then DNA was recovered from the soil of 0.5 g (of wet weight). For DNA extraction, a soil DNA extraction kit (manufactured by Nippon Gene Co., Ltd., product name: ISOIL for Beads Beating) was used and the extracted DNA was purified using a DNA fragment purification kit (Toyobo Co., Ltd., product name: MagExtractor-PCR & Gel Clean up-). […]

SMILES strings stand for the structures.

On to `OCCOCCO` [diethylene glycol], for which the “proliferation properties (Δ bacterial cell concentration)” value is on record as “could grow using diethylene glycol as a carbon source” in assay [1] (diethylene glycol 1 g/L as carbon source, all three degradation bacteria) and “extremely high proliferation properties” in assay [1] (diethylene glycol 1 g/L, strain D17). The bacterial cell concentration entry in the assay on strain D17 is “increased”. Moreover, in the assay on SDIMO-bearing bacteria, the “PCR amplification product of about 420 bp (SDIMO gene) before and after culturing” value was “preferentially proliferated SDIMO-bearing bacteria”.

(Values after US10364415B2, “1,4-dioxane-degrading bacteria culture method, medium, and 1,4-dioxane treatment method using 1,4-dioxane-degrading bacteria” (TAISEI CORPORATION, priority 2014, dated 2019).)
